Measurements published in ChEMBL document CHEMBL1130269, “A 3D QSAR study of a series of HEPT analogues: the influence of conformational mobility on HIV-1 reverse transcriptase inhibition” (J Med Chem, 1997).
Where “and” joins values, the source holds several entries; their conditions need not be identical. Identical values can stand only once.

Biological target: Human immunodeficiency virus type 1 reverse transcriptase (Human immunodeficiency virus 1, UniProt Q72547)
Test: Inhibitory concentration against HIV-1 reverse transcriptase

SMILES	EC50
Cc1ccccc1Sc1c(C)c(=O)[nH]c(=O)n1COCCO	71000 nM
CCc1c(Sc2ccccc2)n(COC2CCCCC2)c(=S)[nH]c1=O	1600 nM
CCc1c(Sc2ccccc2)n(C/C=C/c2ccco2)c(=O)[nH]c1=O	170 nM
CCc1c(Sc2cc(Cl)cc(Cl)c2)n(COCCO)c(=O)[nH]c1=O	14 nM
Cc1c(Sc2cccc(F)c2)n(COCCO)c(=O)[nH]c1=O	3300 nM
CCCOCn1c(Sc2ccccc2)c(C)c(=O)[nH]c1=O	3600 nM
CC(C)c1c(Sc2ccccc2)n(COCCO)c(=S)[nH]c1=O	59 nM
CCc1c(Sc2ccccc2)n(COCc2ccccc2)c(=S)[nH]c1=O	7.8 nM
CCc1c(Sc2ccccc2)n(C/C=C/c2ccccc2)c(=O)[nH]c1=O	190 nM
CCOCn1c(Sc2ccccc2)c(C(C)C)c(=O)[nH]c1=O	12 nM
Cc1c(Sc2cccc(C(C)(C)C)c2)n(COCCO)c(=O)[nH]c1=O	12000 nM
Cc1cc(C)cc(Cc2c(C(C)C)c(=O)[nH]c(=O)n2COCCO)c1	2.7 nM
Cc1c(Sc2ccccc2)n(C/C=C/c2cccnc2)c(=O)[nH]c1=O	100 nM
CCOCn1c(Sc2ccccc2)c(C)c(=O)[nH]c1=O	330 nM
CCc1c(Sc2cc(C)cc(C)c2)n(C/C=C/c2ccco2)c(=O)[nH]c1=O	40 nM
Cc1c(Sc2cccc(Br)c2)n(COCCO)c(=O)[nH]c1=O	5700 nM
CCc1c(Sc2ccccc2)n(COC2CCCCC2)c(=O)[nH]c1=O	4000 nM
COc1ccccc1Sc1c(C)c(=O)[nH]c(=O)n1COCCO	19000 nM
Cc1c(Sc2cccc(I)c2)n(COCCO)c(=O)[nH]c1=O	10000 nM
Cc1cccc(Sc2c(C)c(=O)[nH]c(=O)n2COCCO)c1	2600 nM
CC(=O)c1cccc(Sc2c(C)c(=O)[nH]c(=O)n2COCCO)c1	7300 nM

SMILES	EC50
CCCCn1c(Sc2ccccc2)c(C)c(=O)[nH]c1=O	1200 nM
Cc1ccc(Sc2c(C)c(=O)[nH]c(=O)n2COCCO)cc1	220000 nM
CCOCn1c(Sc2ccccc2)c(C2CC2)c(=O)[nH]c1=O	100 nM
CCc1c(Sc2cc(C)cc(C)c2)n(COCCO)c(=S)[nH]c1=O	7.8 nM
CCOCn1c(Sc2ccccc2)c(CC)c(=O)[nH]c1=S	26 nM
COCCn1c(Cc2ccccc2)c(C(C)C)c(=O)[nH]c1=O	52 nM
CCOCn1c(Cc2ccccc2)c(C(C)C)c(=O)[nH]c1=O [EMIVIRINE]	4.2 nM
Cc1cc(C)cc(Sc2c(C(C)C)c(=O)[nH]c(=S)n2COCCO)c1	5 nM
CCc1c(Sc2ccccc2)n(COCc2ccc(Cl)cc2)c(=S)[nH]c1=O	12 nM
CC(C)c1c(Sc2ccccc2)n(COCc2ccccc2)c(=O)[nH]c1=O	2.7 nM
COCCOCn1c(Sc2ccccc2)c(C)c(=O)[nH]c1=O	8700 nM
COCn1c(Sc2ccccc2)c(C)c(=O)[nH]c1=O	2100 nM
CCc1c(Sc2cc(C)cc(C)c2)n(C/C=C/c2cccs2)c(=O)[nH]c1=O	40 nM
CCOCn1c(Sc2cc(Cl)cc(Cl)c2)c(CC)c(=O)[nH]c1=O	7.4 nM
Cc1c(Sc2cccc(O)c2)n(COCCO)c(=O)[nH]c1=O	82000 nM
Cc1c(Sc2cc(Cl)cc(Cl)c2)n(COCCO)c(=O)[nH]c1=O	1300 nM
Cc1c(Sc2cccc(C#N)c2)n(COCCO)c(=O)[nH]c1=O	10000 nM
CCc1c(Sc2ccccc2)n(COCC2CCCCC2)c(=O)[nH]c1=O	450 nM
CCOCn1c(Sc2cc(C)cc(C)c2)c(CC)c(=O)[nH]c1=S	4.4 nM
CCOCn1c(Cc2cc(C)cc(C)c2)c(C(C)C)c(=O)[nH]c1=O	0.6 nM
CCc1c(Sc2ccccc2)n(C/C=C/c2cccs2)c(=O)[nH]c1=O	80 nM

SMILES	EC50
CC(C)c1c(Sc2ccccc2)n(COCc2ccccc2)c(=S)[nH]c1=O	6.8 nM
CCOCn1c(Sc2cc(C)cc(C)c2)c(CC)c(=O)[nH]c1=O	5.4 nM
Cc1c(Sc2cccc([N+](=O)[O-])c2)n(COCCO)c(=O)[nH]c1=O	34000 nM
CCc1c(Sc2ccccc2)n(COCc2ccccc2)c(=O)[nH]c1=O	5.9 nM
CCOCn1c(Sc2cc(Cl)cc(Cl)c2)c(CC)c(=O)[nH]c1=S	13 nM
Cc1c(Sc2ccc(C3CCCCC3)cc2)n(COCCO)c(=O)[nH]c1=O	3500 nM
CCc1cccc(Sc2c(C)c(=O)[nH]c(=O)n2COCCO)c1	2700 nM
CCc1c(Sc2ccccc2)n(COCCc2ccccc2)c(=S)[nH]c1=O	91 nM
CC(C)c1c(Sc2ccccc2)n(COCCO)c(=O)[nH]c1=O	63 nM
CCOCn1c(Cc2cc(C)cc(C)c2)c(CC)c(=O)[nH]c1=O	1.6 nM
Cc1c(Sc2ccccc2)n(COCc2ccccc2)c(=O)[nH]c1=O	88 nM
CCc1c(Sc2cc(C)cc(C)c2)n(COCc2ccccc2)c(=O)[nH]c1=O	3.2 nM
CCc1c(Sc2ccccc2)n(COCc2ccc(C)cc2)c(=S)[nH]c1=O	78 nM
Cc1cc(C)cc(Sc2c(C)c(=O)[nH]c(=S)n2COCCO)c1	220 nM
CCc1c(Sc2ccccc2)n(COCC2CCCCC2)c(=S)[nH]c1=O	350 nM
CCOCn1c(Sc2ccccc2)c(C(C)C)c(=O)[nH]c1=S	14 nM
CCc1c(Sc2ccccc2)n(CC(C)C)c(=S)[nH]c1=O	220 nM
CCOCn1c(Sc2ccccc2)c(C2CC2)c(=O)[nH]c1=S	95 nM
O=c1[nH]c(=O)n(COCCO)c(Sc2ccccc2)c1I	4300 nM
Cc1c(Sc2cccc(Cl)c2)n(COCCO)c(=O)[nH]c1=O	13000 nM
COc1cccc(Sc2c(C)c(=O)[nH]c(=O)n2COCCO)c1	22000 nM

SMILES	EC50
Cc1c(Oc2ccccc2)n(COCCO)c(=O)[nH]c1=O	8900 nM
C=Cc1c(Sc2ccccc2)n(COCCO)c(=O)[nH]c1=O	4700 nM
CCc1c(Cc2ccccc2)n(CCOC)c(=O)[nH]c1=O	250 nM
Cc1c(Sc2ccccc2)n(C/C=C/c2ccccc2)c(=O)[nH]c1=O	2500 nM
CCn1c(Sc2ccccc2)c(C)c(=O)[nH]c1=O	2200 nM
CCc1c(Sc2cc(C)cc(C)c2)n(COCc2ccccc2)c(=S)[nH]c1=O	6.9 nM
CCc1c(Sc2ccccc2)n(COCCO)c(=O)[nH]c1=O	110 nM and 120 nM
CCc1c(Sc2ccccc2)n(COCCc2ccccc2)c(=O)[nH]c1=O	96 nM
CCc1c(Sc2ccccc2)n(CCCc2ccccc2)c(=O)[nH]c1=O	290 nM
COC(=O)c1cccc(Sc2c(C)c(=O)[nH]c(=O)n2COCCO)c1	7900 nM
CCOCn1c(Sc2ccccc2)c(CC)c(=O)[nH]c1=O	19 nM
Cc1c(Sc2cccc(C(F)(F)F)c2)n(COCCO)c(=O)[nH]c1=O	45000 nM
CCc1c(Cc2ccccc2)n(COCCO)c(=O)[nH]c1=O	350 nM
Cc1c(Cc2ccccc2)n(COCCO)c(=O)[nH]c1=O	5700 nM
CC(C)c1c(Cc2ccccc2)n(COCCO)c(=O)[nH]c1=O	63 nM
CCOCn1c(Cc2ccccc2)c(CC)c(=O)[nH]c1=O	41 nM
CCc1c(Sc2cc(Cl)cc(Cl)c2)n(COCCO)c(=S)[nH]c1=O	43 nM
CCc1c(Cc2cc(C)cc(C)c2)n(COCCO)c(=O)[nH]c1=O	13 nM
Cc1c(Sc2ccccc2[N+](=O)[O-])n(COCCO)c(=O)[nH]c1=O	140000 nM
CCc1c(Sc2ccccc2)n(CC(C)C)c(=O)[nH]c1=O	340 nM
